Values after ≈ are worked out from the molar mass of the structure shown.
Legend:
recombinant perforin = target: T1, recombinant perforin (Mus musculus, UniProt P10820); test: Inhibition of perforin-mediated lysis of Jurkat cells (51Cr release); settings: isolated perforin
T1 sequence (P10820 21-554): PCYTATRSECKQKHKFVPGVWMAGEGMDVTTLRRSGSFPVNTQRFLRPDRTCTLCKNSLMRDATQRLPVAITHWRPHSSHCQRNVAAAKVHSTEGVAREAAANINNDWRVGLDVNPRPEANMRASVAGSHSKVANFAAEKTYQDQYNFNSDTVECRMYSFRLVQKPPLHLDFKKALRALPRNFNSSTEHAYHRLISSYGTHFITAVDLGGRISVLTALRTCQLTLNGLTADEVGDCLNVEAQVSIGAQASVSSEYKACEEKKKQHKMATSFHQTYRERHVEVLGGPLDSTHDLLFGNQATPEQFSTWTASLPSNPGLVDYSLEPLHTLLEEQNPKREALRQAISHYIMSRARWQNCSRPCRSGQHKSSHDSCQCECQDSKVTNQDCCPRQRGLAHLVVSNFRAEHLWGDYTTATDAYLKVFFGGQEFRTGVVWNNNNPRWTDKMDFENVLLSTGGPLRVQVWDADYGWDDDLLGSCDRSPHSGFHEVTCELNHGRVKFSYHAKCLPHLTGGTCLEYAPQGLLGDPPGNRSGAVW
Procedure: The ability of the compounds to inhibit the lysis of nucleated (Jurkat T lymphoma) cells in the presence of 0.1% BSA, as measured by release of ^51Cr was measured. Jurkat target cells were labelled by incubation in medium with 100 µCi ^51Cr for one hour. The cells were then washed three times to remove unincorporated isotope and re-suspended at 1 x 10^5 cells per mL in RPMI buffer supplemented with 0.1% BSA. Each test compound was pre-incubated to concentrations of 20, 10, 5, 2.5 and 1.25 µM with recombinant perforin for 30 min with DMSO as a negative control. ^51Cr labelled Jurkat cells were then added and cells were incubated at 37 °C for 4 h. The supernatant was collected and assessed for its radioactive content on a gamma counter (Wallac Wizard 1470 automatic gamma counter). Each data point was performed in triplicate and an IC50 was calculated from the range of concentrations described to above.

Solubility in water = settings: for solubility: water

| SMILES | melting point [°C] | Inhibition of perforin lytic activity in Jurkat assay (in words) (recombinant perforin) | further results |
| --- | --- | --- | --- |
| O=C1OCc2cc(-c3ccc(-c4ccccc4)s3)ccc21 [Compound 6] | 231 to 233 |  |  |
| Cc1ccccc1-c1ccc(-c2ccc3c(c2)COC3=O)s1 [Compound 7] | 109 to 111 |  |  |
| Cc1cccc(-c2ccc(-c3ccc4c(c3)COC4=O)s2)c1 [Compound 8] | 192 to 194 |  |  |
| Cc1ccc(-c2ccc(-c3ccc4c(c3)COC4=O)s2)cc1 [Compound 9] | 184 to 186 |  |  |
| O=C1OCc2cc(-c3ccc(-c4ccccc4Cl)s3)ccc21 [Compound 10] | 131 to 133 |  |  |
| O=C1OCc2cc(-c3ccc(-c4cccc(Cl)c4)s3)ccc21 [Compound 11] | 207 to 209 |  |  |
| O=C1OCc2cc(-c3ccc(-c4ccc(Cl)cc4)s3)ccc21 [Compound 12] | 231 to 234 |  |  |
| COc1ccccc1-c1ccc(-c2ccc3c(c2)COC3=O)s1 [Compound 13] | 190 to 192 | no detectable inhibition |  |
| COc1cccc(-c2ccc(-c3ccc4c(c3)COC4=O)s2)c1 [Compound 14] | 165 to 167 | no detectable inhibition |  |
| COc1ccc(-c2ccc(-c3ccc4c(c3)COC4=O)s2)cc1 [Compound 15] | 224 to 227 |  |  |
| O=C1OCc2cc(-c3ccc(-c4cccc(O)c4)s3)ccc21 [Compound 18] | 276 to 279 |  |  |
| O=C1OCc2cc(-c3ccc(-c4ccc(O)cc4)s3)ccc21 [Compound 19] | 279 to 282 | loses all activity |  |
| N#Cc1cccc(-c2ccc(-c3ccc4c(c3)COC4=O)s2)c1 [Compound 20] | 250 to 251 | activity is lost altogether |  |
| NC(=O)c1cccc(-c2ccc(-c3ccc4c(c3)COC4=O)s2)c1 [Compound 22] | 259 to 263 |  |  |
| NC(=O)c1ccc(-c2ccc(-c3ccc4c(c3)CNC4=O)s2)cc1 [Compound 23a] |  | loss of activity |  |
| CN1Cc2cc(-c3ccc(-c4ccc(C(N)=O)cc4)s3)ccc2C1=O [Compound 23b] | 287 to 290 | loss of activity |  |
| CNC(=O)c1ccc(-c2ccc(-c3ccc4c(c3)COC4=O)s2)cc1 [Compound 29] | 299 to 302 | loss of efficacy |  |
| CN(C)C(=O)c1ccc(-c2ccc(-c3ccc4c(c3)COC4=O)s2)cc1 [Compound 30] | 290 to 292 | abolishes activity completely |  |

| SMILES | melting point [°C] | Inhibition of perforin lytic activity in Jurkat assay (in words) (recombinant perforin) | further results |
| --- | --- | --- | --- |
| CN1CCN(C(=O)c2ccc(-c3ccc(-c4ccc5c(c4)COC5=O)s3)cc2)CC1 [Compound 31] |  | abolishes activity completely |  |
| CN(C)CCCNC(=O)c1ccc(-c2ccc(-c3ccc4c(c3)COC4=O)s2)cc1 [Compound 32] | 185 to 188 | poor activity or were inactive |  |
| CCOC(=O)c1ccc(-c2ccc(-c3ccc4c(c3)COC4=O)s2)cc1O [Compound 40] | 208 to 210 |  |  |
| O=C(NCCN1CCOCC1)c1ccc(-c2ccc(-c3ccc4c(c3)COC4=O)s2)cc1O [Compound 49] |  | poor activity or were inactive |  |
| CN(C)CCNC(=O)c1ccc(-c2ccc(-c3ccc4c(c3)COC4=O)s2)cc1O [Compound 50] | 242 to 245 | poor activity or were inactive |  |
| O=C(NCCO)c1ccc(-c2ccc(-c3ccc4c(c3)COC4=O)s2)cc1O [Compound 51] |  |  | solubility (Solubility in water): 15.7 µg/mL (≈ 39.7 µM) |
| CC(O)CNC(=O)c1ccc(-c2ccc(-c3ccc4c(c3)COC4=O)s2)cc1O (centres unmarked) [Compound 52] | 241 to 244 |  |  |
| NC(=O)CNC(=O)c1ccc(-c2ccc(-c3ccc4c(c3)COC4=O)s2)cc1O [Compound 53] |  |  | solubility (Solubility in water): 4.7 µg/mL (≈ 11.5 µM) |
| NC(=O)c1ccc(-c2ccc(-c3ccc4c(c3)COC4=O)s2)cc1N [Compound 55] |  |  | solubility (Solubility in water): 9.4 µg/mL (≈ 26.8 µM) |
| Nc1cc(-c2ccc(-c3ccc4c(c3)COC4=O)s2)ccc1C(=O)NCCN1CCOCC1 [Compound 56] | 209 to 211 | poor activity or were inactive |  |
| CN(C)CCNC(=O)c1ccc(-c2ccc(-c3ccc4c(c3)COC4=O)s2)cc1N [Compound 57] | 185 to 188 | poor activity or were inactive |  |
| CSc1ccc(-c2ccc(-c3ccc4c(c3)COC4=O)s2)cc1 [Compound 58] | 239 to 241 |  |  |
| CS(=O)(=O)c1ccc(-c2ccc(-c3ccc4c(c3)COC4=O)s2)cc1 [Compound 60] | 278 to 280 |  |  |
| NS(=O)(=O)c1cccc(-c2ccc(-c3ccc4c(c3)COC4=O)s2)c1 [Compound 61] | 273 to 276 |  |  |
| CC(C)(C)NS(=O)(=O)c1ccc(-c2ccc(-c3ccc4c(c3)COC4=O)s2)cc1 [Compound 62] | 255 to 257 |  |  |
| O=C1OCc2cc(-c3ccc(-c4ccncc4)s3)ccc21 [Compound 70] | 260 to 261 |  |  |
| O=C1OCc2cc(-c3ccc(-c4ccc5c(c4)COC5=O)s3)ccc21 [Compound 71] |  | only moderately potent | Solubility (in words) (Solubility in water): extremely insoluble |
